The record followed here is patent EP4473972A1, “COMBINATIONS COMPRISING AN ATR INHIBITOR WITH SYNERGISTIC EFFECT AGAINST GLIOMAS” (Eberhard-Karls-Universität Tübingen, priority 2023, dated 2024).

One assay deals with SMA560 glioma cells. As to the kind of experiment: Syngeneic glioma mouse model (survival). Type of assay: in vivo, VM/Dk mice. The settings on record: 50 mg/kg bodyweight via oral gavage, five days on, two days treatment holiday; survival = time until the onset of neurological symptoms; vehicle control 14 days. From the text: All animal experiments were approved by the regional council Tübingen and conducted in accordance with animal law. Animals used in this study are kept and bred in the animal facility of the institute. They are regularly analyzed for infectious diseases. The inventors injected 5000 SMA560 glioma cells into the right striatum of VM/Dk mice (male and female). On day 5 post surgery, they randomized mice into treatment and control arm. The inventors administered AZD6738 (celasertib, Selleckchem, Houston, TX, US) at 50 mg/kg bodyweight or vehicle control via oral gavage for five days followed by two days of treatment holiday. Animals were closely monitored as shown in the scoring sheets. The endpoint of the experiment was according to the animal law "the time until the onset of neurological symptoms", in the text designated as "survival".

Assay [1] concerns LN229 cells. Put plainly: Clonogenic survival assay. The settings on record: treated 24 h in serum-free medium. Type of assay: cell-based, human. Here is the method:
(§1) Cells were seeded the day before treatment. The inventors treated the cells in the indicated concentrations in serum-free medium for 24 h after which they changed the medium back to medium containing FCS, followed by a 7 to 21 day incubation time. The inventors used crystal violet (0.5% w/v) to stain colonies and analyzed the area coverage using the ImageJ software Plugln ColonyArea. Measurements were normalized to respective vehicle control wells.

The test system of assay [2] is LNZ308 cells. Put plainly: Clonogenic survival assay. Type of assay: cell-based, human. The settings on record: treated 24 h in serum-free medium. Here is the method: as §1
Assay [3] has as its system patient-derived glioblastoma microtumor models (PDM). As to the kind of experiment: Patient derived microtumors (PDM) viability, RealTime-Glo MT Cell Viability Assay. Type of assay: cell-based. The following applies: patient-derived microtumors (PDMs), 72 h. As to the method: PDMs were extracted from surgically resected, residual glioblastoma tissue as is known to the skilled person. The inventors treated the PDMs with indicated drug concentrations for 72 h and determined cell viability using RealTime-Glo MT Cell Viability Assay (Promega, Madison, Wl, US). Luminescence assay signal was measured using a multimode microplate reader (Tecan, Männedorf, Switzerland). Obtained luminescence units were background corrected and plotted as dose response curves using GraphPad Prism 9 software. The use of residual tissue after tumor resections was approved by the ethical board of the University Hospital Tübingen.

In assay [4] the test system is primary cultures (TUE-PC1-6). Put plainly: Viability of patient-derived primary cultures. Type of assay: cell-based. The following applies: six primary cultures (TUE-PC1-6), 72 h. An excerpt:
Primary tumor tissue was obtained from fresh residual material upon resection at the Department of Neurosurgery, University Hospital Tübingen. The inventors cut the tissue in small pieces, washed it using Hanks Balanced Salt Solution (HBSS) (Gibco, Carlsbad, CA, US) and digested it by collagenase and dispase (Roche, Basel, CH). To remove any remaining erythrocytes, they used red blood cell lysis buffer (Sigma Aldrich, St. Louis, MO, US). The inventors then cultured the cells as GS cells in Neurobasal®-A medium. They first evaluated AZD6738 sensitivity of each primary culture and selected two concentrations. […] To evaluate combination treatment analyses, the inventors leveraged the Bliss independence Criterion.
The inventors seeded 5,000 or 10,000 cells, respectively, on day one, treated the next day in serum-free medium and incubated for up to 72 h. Subsequently, they measured cell viability using CellTiterBlue reagent (Promega, Madison, WI, US) according to manufacturer's instructions with a GloMax (Promega, Madison, Wl, US). The inventors normalized measurements to untreated cells.

Assay [5] deals with LN229 cells. Put plainly: Cell cycle analysis (propidium iodide flow cytometry). Type of assay: cell-based, human. The settings on record: LN229, 72 h. Here is the method:
(§2) The inventors seeded the cells on day one and treated them on the next day. After 72 h, they detached the cells and stained them with propidium iodide solution (50 µg/mL propidium iodide (Thermo Fisher Scientific, Waltham, MA, US), 0.2% Triton X-100 (Roth, Karlsruhe, Germany), 100 µg RNase (Thermo Fisher Scientific, Waltham, MA, US), 1 g/L glucose in PBS (phosphate buffered saline) (Gibco, Carlsbad, CA, US). Flow cytometry was done using a MACSQuant Analyzer 10 (Miltenyi Biotec, Bergisch Gladbach, Germany). The inventors analyzed the acquired data with the FlowJo software (Beckton, Dickinson & Company, Franklin Lakes, NJ, US).
Background: Flow cytometry measures light scatter and fluorescence of single cells or particles in a stream.

Assay [6] relates to LNZ308 cells. The description is as above. Type of assay: cell-based, human. The settings on record: LNZ308, 72 h. As to the method:
as §2

For a further assay, the system named is LN229-GFP cells. As to the kind of experiment: Zebrafish embryo xenotransplant, tumor area. Type of assay: in vivo, wildtype zebrafish embryos. The following applies: monotherapy, 48 h of treatment; not significant as compared to the DMSO control. As to the method:
The inventors used zebrafish wildtype (wt) TE embryos younger than 5 days post-fertilization (dpf). […] Labelled cells were suspended in PBS at 2*10^5 cells/µL and approx. 1 nL cell suspension was injected into the midbrain region of 24 hpf embryos. The inventors incubated the embryos at 28°C for 1 h and afterwards divided them into treatment groups. Only successfully transplanted embryos were used for further experiments. Then, the inventors applied the treatments as indicated in the respective figures and incubated that for 48 h at 35°C. For evaluation of tumor size, they imaged embryos on a Nikon Stereomicroscope (SMZ18) with the NIS Element software. The inventors assessed the tumor surface areas using Imaris (version 9.2.0).

The molecule `C[C@@H]1COCCN1c1cc(C2([S@](C)(=N)=O)CC2)nc(-c2cc[nH]c3nccc2-3)n1` [AZD6738, ceralasertib] displayed a median survival in the assay on SMA560 glioma cells of 21 days. In addition, the clonogenic survival entry in the assay on LN229 cells [1] and with LNZ308 cells [2] was “dose-dependent reduction” throughout. Besides, the cell viability result in assay [3] and in assay [4] was “dose-dependent reduction” each time. The cell cycle alterations result with LN229 cells [5] is on record as “accumulation in S phase”; with LNZ308 cells [6], “accumulation of LNZ308 cells in G2-M phase”. For the same molecule, the tumor area entry with LN229-GFP cells is “modest decrease”.
